Source: US6939890B2, “sPLA2 inhibitors” (Eli Lilly and Company, priority 1999, dated 2005)
Where a name gives a salt, the structure may show the parent alone.

Tests used:
[1] = target: T1, recombinant human secreted phospholipase A2 (Homo sapiens, UniProt P14555); assay: chromogenic assay for inhibitors of recombinant human secreted phospholipase A2 (diheptanoyl thio-PC/DTNB, 96 well microtiter plates); format: biochemical; settings: included in the table for purposes of comparison only
T1 sequence (P14555 21-144): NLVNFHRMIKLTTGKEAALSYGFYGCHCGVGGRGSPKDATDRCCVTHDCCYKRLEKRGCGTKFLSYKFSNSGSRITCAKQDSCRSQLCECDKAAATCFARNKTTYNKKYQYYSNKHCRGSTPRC
Text: The following chromogenic assay procedure was used to identify and evaluate inhibitors of recombinant human secreted phospholipase A2. The assay described herein has been adapted for high volume screening using 96 well microtiter plates. A general description of this assay method is found in the article, “Analysis of Human Synovial Fluid Phospholipase A2 on Short Chain Phosphatidylcholine-Mixed Micelles: Development of a Spectrophotometric Assay Suitable for a Microtiterplate Reader”, by Laure J. Reynolds, Lori L. Hughes, and Edward A Dennis, Analytical Biochemistry, 204, pp. 190-197, 1992 (the disclosure of which is incorporated herein by reference): […]
A measured volume of racemic dipheptanoyl thio PC supplied in chloroform at a concentration of 100 mg/ml is taken to dryness and redissolved in 10 millimolar […]
• 1. […] Read absorbance of wells at 405 nanometers with an automatic plate reader.
All compounds were tested in triplicate. […] Compounds initially found to be active were reassayed to confirm their activity and, if sufficiently active, IC50 values were determined. […] In all cases, % inhibition measured at 405 nanometers generated by enzyme reactions containing inhibitors relative to the uninhibited control reactions was determined. […] IC50 were determined by plotting log concentration versus inhibition values in the range from 10-90% inhibition.

SMILES	melting point	inhibiting sPLA2 (statement in words) [1]
CCc1c(C(=O)C(N)=O)c2c(OCC(=O)N(C)OC)cccc2n1Cc1ccccc1 (as salt: hydrochloride) [Compound 2Ac, 2-[[3-(Aminooxoacetyl)-2-ethyl-1-(phenylmethyl)-1H-indol-4-yl]oxy]-N-(methyl)-N-(methyloxy)acetamide]	168 to 170 °C	–
CCc1c(C(=O)C(N)=O)c2c(OCC(=O)N(C)O)cccc2n1Cc1ccccc1 (as salt: hydrochloride) [Compound 2Ad, 2-[[3-(Aminooxoacetyl)-2-ethyl-1-(phenylmethyl)-1H-indol-4-yl]oxy]-N-(hydroxy)-N-(methyl)acetamide]	217 °C (dec.)	–
CCONC(=O)COc1cccc2c1c(C(=O)C(N)=O)c(CC)n2Cc1ccccc1 (as salt: hydrochloride) [Compound 2Ae, 2-[[3-(Aminooxoacetyl)-2-ethyl-1-(phenylmethyl)-1H-indol-4-yl]oxy]-N-(ethyloxy)acetamide]	176 to 178 °C	–
C=CCONC(=O)COc1cccc2c1c(C(=O)C(N)=O)c(CC)n2Cc1ccccc1 (as salt: hydrochloride) [Compound 2Af, 2-[[3-(Aminooxoacetyl)-2-ethyl-1-(phenylmethyl)-1H-indol-4-yl]oxy]-N-(2-propenyloxy)acetamide]	175 to 177 °C	–
CCc1c(C(=O)C(N)=O)c2c(OCC(=O)N(O)C(C)C)cccc2n1Cc1ccccc1 (as salt: hydrochloride) [Compound 2Ag, 2-[[3-(Aminooxoacetyl)-2-ethyl-1-(phenylmethyl)-1H-indol-4-yl]oxy]-N-(hydroxy)-N-(2-propyl)acetamide]	202 °C (dec.)	–
CCc1c(C(=O)C(N)=O)c2c(OCC(=O)NOC(C)(C)C)cccc2n1Cc1ccccc1 (as salt: hydrochloride) [Compound 2Ah, 2-[[3-(Aminooxoacetyl)-2-ethyl-1-(phenylmethyl)-1H-indol-4-yl]oxy]-N-(tert-butyloxy)acetamide]	203 to 205 °C	–
CCc1c(C(=O)C(N)=O)c2c(OCC(=O)NOCc3ccccc3)cccc2n1Cc1ccccc1 (as salt: hydrochloride) [Compound 2Aj, 2-[[3-(Aminooxoacetyl)-2-ethyl-1-(phenylmethyl)-1H-indol-4-yl]oxy]-N-(phenylmethyloxy)acetamide]	167 to 169 °C	–
CCc1c(C(=O)C(N)=O)c2c(OCC(=O)NOc3ccccc3)cccc2n1Cc1ccccc1 (as salt: hydrochloride) [Compound 2Al, 2-[[3-(Aminooxoacetyl)-2-ethyl-1-(phenylmethyl)-1H-indol-4-yl]oxy]-N-(phenyloxy)acetamide]	205 °C (dec.)	–
CCc1c(C(=O)C(N)=O)c2c(OCC(=O)N(O)C3CCCCC3)cccc2n1Cc1ccccc1 (as salt: hydrochloride) [Compound 2An, 2-[[3-(Aminooxoacetyl)-2-ethyl-1-(phenylmethyl)-1H-indol-4-yl]oxy]-N-(cyclohexyl)-N-(hydroxy)acetamide]	210 °C (dec.)	–
CCc1c(C(=O)C(N)=O)c2c(OCC(=O)OC)cccc2n1Cc1ccccc1 [1 (SM), [[3-(2-Amino-1,2-dioxoethyl)-2-ethyl-1-(phenylmethyl)-1H-indol-4-yl]oxy]acetic acid methyl ester]	–	highly active
CCc1c(C(=O)C(N)=O)c2c(OCC(=O)NOC)cccc2n1Cc1ccccc1 [Compound 2Ab, 2-[[3-(Aminooxoacetyl)-2-ethyl-1-(phenylmethyl)-1H-indol-4-yl]oxy]-N-(methyloxy)acetamide]	228 °C (dec.)	–
CCc1c(C(=O)C(N)=O)c2c(OCC(=O)N(C)OCc3ccccc3)cccc2n1Cc1ccccc1 [Compound 2Ak, 2-[[3-(Aminooxoacetyl)-2-ethyl-1-(phenylmethyl)-1H-indol-4-yl]oxy]-N-(methyl)-N-(phenylmethyloxy)acetamide]	186.5 to 188.5 °C	–
CCc1c(C(=O)C(N)=O)c2c(OCC(=O)N(C)Oc3ccccc3)cccc2n1Cc1ccccc1 [Compound 2Am, 2-[[3-(Aminooxoacetyl)-2-ethyl-1-(phenylmethyl)-1H-indol-4-yl]oxy]-N-(methyl)-N-(phenyloxy)acetamide]	146 to 147.5 °C	–
CCc1c(CC(N)=O)c2c(OCC(=O)NO)cccc2n1Cc1ccccc1 [Compound 2Ba, 2-[[3-(2-Amino-2-oxoethyl)-2-ethyl-1-(phenylnmethyl)-1H-indol-4-yl]oxy]-N-(hydroxy)acetamide]	187 to 189 °C	–
